Source: patent US20240279240A1, “HETEROCYCLIC DERIVATIVES AS JANUS KINASE INHIBITORS” (CHIESI FARMACEUTICI S.P.A., priority 2021, published 2024)

Tests used:
JAK 2 = JAK 2 (Homo sapiens, UniProt O60674); assay: Biochemical potency on JAK2, TR-FRET LANCE Ultra kinase assay (examples 1-99); details: ATP at Km (0.7 μM), read-out: JAK2 inhibitory activity (pIC50 class) (converted)
Summary of the method: (§1)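 Inhibition of each JAK family kinase is measured as loss of phosphotyrosine signal on a ULight peptide, detected by Eu-PT66 antibody (final 0.5 nM) via time-resolved FRET. ATP sits near Km for each isoform. Dose–response spans 20 μM downward in 5-fold steps, 11 points.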

JAK 3 = molecular target: T1, JAK 3 (Homo sapiens, UniProt P52333); assay: Biochemical potency on JAK3, TR-FRET LANCE Ultra kinase assay (examples 1-99); details: ATP at Km (0.2 μM), read-out: JAK3 inhibitory activity (pIC50 class) (converted)
T1 sequence (P52333 1-1124): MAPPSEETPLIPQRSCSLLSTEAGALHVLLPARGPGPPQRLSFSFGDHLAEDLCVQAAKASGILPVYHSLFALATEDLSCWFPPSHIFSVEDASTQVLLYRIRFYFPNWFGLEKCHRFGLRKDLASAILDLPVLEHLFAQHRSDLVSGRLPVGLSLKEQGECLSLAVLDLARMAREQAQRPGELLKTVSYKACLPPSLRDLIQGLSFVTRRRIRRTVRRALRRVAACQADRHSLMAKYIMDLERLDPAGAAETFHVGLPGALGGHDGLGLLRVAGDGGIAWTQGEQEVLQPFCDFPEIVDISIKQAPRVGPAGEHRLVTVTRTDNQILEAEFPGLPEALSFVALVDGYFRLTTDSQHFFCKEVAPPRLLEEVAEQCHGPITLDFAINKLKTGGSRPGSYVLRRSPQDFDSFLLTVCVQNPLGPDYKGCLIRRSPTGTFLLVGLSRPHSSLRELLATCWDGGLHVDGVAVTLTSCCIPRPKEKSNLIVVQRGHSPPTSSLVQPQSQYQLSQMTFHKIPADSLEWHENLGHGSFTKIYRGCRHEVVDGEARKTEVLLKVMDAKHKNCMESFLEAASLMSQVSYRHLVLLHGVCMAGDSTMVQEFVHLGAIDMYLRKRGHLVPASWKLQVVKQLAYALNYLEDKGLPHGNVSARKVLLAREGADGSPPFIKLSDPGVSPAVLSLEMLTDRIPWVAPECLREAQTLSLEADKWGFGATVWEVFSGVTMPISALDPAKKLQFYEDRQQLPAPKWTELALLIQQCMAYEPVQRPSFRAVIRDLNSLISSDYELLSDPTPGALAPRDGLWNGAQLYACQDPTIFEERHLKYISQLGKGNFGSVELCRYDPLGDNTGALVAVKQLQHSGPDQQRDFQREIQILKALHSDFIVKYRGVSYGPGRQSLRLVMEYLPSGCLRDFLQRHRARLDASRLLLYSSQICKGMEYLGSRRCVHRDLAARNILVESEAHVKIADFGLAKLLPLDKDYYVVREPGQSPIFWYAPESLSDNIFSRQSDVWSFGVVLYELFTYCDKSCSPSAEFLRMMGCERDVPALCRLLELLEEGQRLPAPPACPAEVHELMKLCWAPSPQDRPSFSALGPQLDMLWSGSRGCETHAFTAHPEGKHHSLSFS
Summary of the method: as §1

TYK2 = TYK2 (Homo sapiens, UniProt P29597); assay: Biochemical potency on Tyk2, TR-FRET LANCE Ultra kinase assay (examples 1-99); details: ATP at Km (12 μM), read-out: Tyk2 inhibitory activity (pIC50 class) (converted)
Summary of the method: as §1

JAK 1 = JAK 1 (Homo sapiens, UniProt P23458); assay: Biochemical potency on JAK1, TR-FRET LANCE Ultra kinase assay (examples 1-99); details: ATP at Km (20 μM), read-out: JAK1 inhibitory activity (pIC50 class) (converted)
Summary of the method: as §1

Chain of TYK2 (P29597 whole entry): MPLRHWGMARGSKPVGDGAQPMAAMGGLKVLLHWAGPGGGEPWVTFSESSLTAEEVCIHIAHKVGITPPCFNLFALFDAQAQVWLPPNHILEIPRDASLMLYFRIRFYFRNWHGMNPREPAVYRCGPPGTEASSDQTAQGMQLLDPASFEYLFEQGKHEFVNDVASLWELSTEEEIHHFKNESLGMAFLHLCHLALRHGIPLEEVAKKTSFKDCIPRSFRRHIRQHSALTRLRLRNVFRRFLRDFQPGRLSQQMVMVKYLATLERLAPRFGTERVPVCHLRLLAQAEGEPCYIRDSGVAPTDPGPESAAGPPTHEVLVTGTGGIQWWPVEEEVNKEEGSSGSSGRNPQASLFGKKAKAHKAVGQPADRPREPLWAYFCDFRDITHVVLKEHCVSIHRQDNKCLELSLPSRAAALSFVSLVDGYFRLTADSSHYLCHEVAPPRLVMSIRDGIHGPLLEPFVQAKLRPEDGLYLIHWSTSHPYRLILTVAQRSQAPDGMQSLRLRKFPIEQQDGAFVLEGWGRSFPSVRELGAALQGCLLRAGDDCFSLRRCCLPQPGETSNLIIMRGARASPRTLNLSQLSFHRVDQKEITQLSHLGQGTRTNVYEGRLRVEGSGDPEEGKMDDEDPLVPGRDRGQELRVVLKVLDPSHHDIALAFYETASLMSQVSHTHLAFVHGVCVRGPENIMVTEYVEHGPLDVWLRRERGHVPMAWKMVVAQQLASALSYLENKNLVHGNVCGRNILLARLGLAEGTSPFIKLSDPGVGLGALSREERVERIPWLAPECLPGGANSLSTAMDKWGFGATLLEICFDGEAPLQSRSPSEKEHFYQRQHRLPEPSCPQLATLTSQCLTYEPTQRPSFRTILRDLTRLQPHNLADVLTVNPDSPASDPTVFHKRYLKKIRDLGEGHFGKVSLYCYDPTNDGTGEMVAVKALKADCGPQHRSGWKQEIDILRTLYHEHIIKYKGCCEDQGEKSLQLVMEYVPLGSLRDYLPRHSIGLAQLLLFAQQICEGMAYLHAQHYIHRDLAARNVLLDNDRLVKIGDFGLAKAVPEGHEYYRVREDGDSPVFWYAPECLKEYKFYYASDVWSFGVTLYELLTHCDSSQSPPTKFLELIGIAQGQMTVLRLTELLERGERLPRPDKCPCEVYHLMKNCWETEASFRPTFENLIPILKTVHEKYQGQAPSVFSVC
Chain of JAK 2 (O60674 whole entry, canonical isoform): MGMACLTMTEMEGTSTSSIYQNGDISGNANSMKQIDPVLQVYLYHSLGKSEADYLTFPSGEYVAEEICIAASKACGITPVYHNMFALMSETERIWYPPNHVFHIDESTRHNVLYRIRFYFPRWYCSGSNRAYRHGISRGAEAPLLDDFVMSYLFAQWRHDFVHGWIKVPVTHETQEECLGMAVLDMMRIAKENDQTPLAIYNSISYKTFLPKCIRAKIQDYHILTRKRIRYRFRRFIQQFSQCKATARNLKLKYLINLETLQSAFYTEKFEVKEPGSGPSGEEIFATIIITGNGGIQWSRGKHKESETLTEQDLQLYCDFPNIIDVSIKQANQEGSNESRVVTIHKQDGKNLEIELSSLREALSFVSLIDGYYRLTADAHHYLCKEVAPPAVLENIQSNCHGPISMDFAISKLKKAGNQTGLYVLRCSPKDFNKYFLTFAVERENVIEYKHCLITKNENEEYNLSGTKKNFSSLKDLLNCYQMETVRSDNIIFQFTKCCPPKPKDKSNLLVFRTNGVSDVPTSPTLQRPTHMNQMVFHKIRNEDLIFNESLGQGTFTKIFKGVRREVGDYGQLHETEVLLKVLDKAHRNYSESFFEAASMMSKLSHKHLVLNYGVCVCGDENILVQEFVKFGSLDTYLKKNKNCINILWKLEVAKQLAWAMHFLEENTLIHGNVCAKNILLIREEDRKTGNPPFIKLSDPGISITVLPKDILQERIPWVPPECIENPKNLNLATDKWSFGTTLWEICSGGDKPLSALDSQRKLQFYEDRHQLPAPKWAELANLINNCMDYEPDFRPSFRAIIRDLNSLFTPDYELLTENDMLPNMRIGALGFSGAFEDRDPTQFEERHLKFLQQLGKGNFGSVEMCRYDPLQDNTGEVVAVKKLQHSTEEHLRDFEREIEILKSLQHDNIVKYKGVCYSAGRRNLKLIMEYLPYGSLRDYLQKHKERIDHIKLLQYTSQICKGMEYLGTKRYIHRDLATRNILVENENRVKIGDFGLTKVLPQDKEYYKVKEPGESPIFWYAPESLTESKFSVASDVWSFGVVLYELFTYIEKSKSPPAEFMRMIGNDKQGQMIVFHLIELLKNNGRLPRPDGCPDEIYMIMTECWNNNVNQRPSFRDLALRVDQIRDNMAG
Chain of JAK 1 (P23458 whole entry): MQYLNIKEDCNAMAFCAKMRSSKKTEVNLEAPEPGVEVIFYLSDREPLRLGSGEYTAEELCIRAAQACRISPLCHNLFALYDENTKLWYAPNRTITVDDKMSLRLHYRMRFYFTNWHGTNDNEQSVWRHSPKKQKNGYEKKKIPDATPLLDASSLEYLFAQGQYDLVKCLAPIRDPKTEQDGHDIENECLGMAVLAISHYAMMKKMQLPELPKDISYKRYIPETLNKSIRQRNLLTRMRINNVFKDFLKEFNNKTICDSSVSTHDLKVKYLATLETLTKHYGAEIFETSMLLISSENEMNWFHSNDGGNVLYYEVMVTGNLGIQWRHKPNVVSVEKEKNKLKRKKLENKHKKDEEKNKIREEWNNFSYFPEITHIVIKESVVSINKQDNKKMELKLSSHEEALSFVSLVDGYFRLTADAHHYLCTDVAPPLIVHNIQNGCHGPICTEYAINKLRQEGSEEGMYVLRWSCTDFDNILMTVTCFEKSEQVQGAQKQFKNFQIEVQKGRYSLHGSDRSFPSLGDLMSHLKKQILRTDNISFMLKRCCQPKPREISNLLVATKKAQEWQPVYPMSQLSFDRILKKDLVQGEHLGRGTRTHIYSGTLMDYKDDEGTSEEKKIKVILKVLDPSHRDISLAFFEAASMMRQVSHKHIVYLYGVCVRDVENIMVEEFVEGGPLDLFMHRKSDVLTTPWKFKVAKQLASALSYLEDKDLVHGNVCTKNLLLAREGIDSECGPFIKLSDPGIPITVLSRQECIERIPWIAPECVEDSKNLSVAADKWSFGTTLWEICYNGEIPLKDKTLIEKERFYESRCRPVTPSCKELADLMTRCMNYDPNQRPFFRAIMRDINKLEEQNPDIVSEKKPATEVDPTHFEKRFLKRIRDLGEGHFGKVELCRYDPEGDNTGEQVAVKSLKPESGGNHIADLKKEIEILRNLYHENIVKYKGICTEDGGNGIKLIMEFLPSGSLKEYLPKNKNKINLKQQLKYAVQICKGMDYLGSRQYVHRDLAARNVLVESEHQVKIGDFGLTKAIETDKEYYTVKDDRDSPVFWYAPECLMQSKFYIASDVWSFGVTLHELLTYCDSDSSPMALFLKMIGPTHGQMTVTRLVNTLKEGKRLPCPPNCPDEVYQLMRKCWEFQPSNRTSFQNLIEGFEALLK

| IC50 (JAK 2) [nM] | IC50 (JAK 3) [nM] | IC50 (TYK2) [nM] | IC50 (JAK 1) [nM] | SMILES |
| --- | --- | --- | --- | --- |
| 5.01 to 50.1 | 5.01 to 50.1 | 5.01 to 50.1 | 5.01 to 50.1 | COc1ccc(Cl)cc1-n1nc(C(=O)N[C@H]2C[C@H](N(C)C)C2)c2cnc(-c3cnn4cccnc34)cc21 [Example 80, 1-(5-chloro-2-methoxyphenyl)-N-((1r,3r)-3-(dimethylamino)cyclobutyl)-6-(pyrazolo[1,5-a]pyrimidin-3-yl)-1H-pyrazolo[4,3-c]pyridine-3-carboxamide] |
| ≤ 5.01 | ≤ 5.01 | > 50.1 | 5.01 to 50.1 | COc1ccc(S(=O)(=O)NCCO)cc1-n1nc(C)c2cnc(Nc3ncc[nH]c3=O)cc21 [Example 92, N-(2-hydroxyethyl)-4-methoxy-3-(3-methyl-6-((3-oxo-3,4-dihydropyrazin-2-yl)amino)-1H-pyrazolo[4,3-c]pyridin-1-yl)benzenesulfonamide] |
| 5.01 to 50.1 | 5.01 to 50.1 | > 50.1 | 5.01 to 50.1 | COc1ccc(S(C)(=O)=O)cc1-n1nc(NCCN2CCOCC2)c2cnc(-c3cnn4cccnc34)cc21 [Example 43, 1-(2-methoxy-5-(methylsulfonyl)phenyl)-N-(2-morpholinoethyl)-6-(pyrazolo[1,5-a]pyrimidin-3-yl)-1H-pyrazolo[4,3-c]pyridin-3-amine] |
| 5.01 to 50.1 | 5.01 to 50.1 | 5.01 to 50.1 | ≤ 5.01 | COc1cc(O)c(F)cc1-n1nc(C(=O)NCCCN(C)C)c2cnc(-c3cnn4cccnc34)cc21 [Example 88, N-(3-(dimethylamino)propyl)-1-(5-fluoro-4-hydroxy-2-methoxyphenyl)-6-(pyrazolo[1,5-a]pyrimidin-3-yl)-1H-pyrazolo[4,3-c]pyridine-3-carboxamide] |
| 5.01 to 50.1 | > 50.1 | > 50.1 | 5.01 to 50.1 | CNCc1nn(-c2cc(S(C)(=O)=O)ccc2OC)c2cc(-c3cnn4cccnc34)ncc12 [Example 89, 1-(1-(2-Methoxy-5-(methylsulfonyl)phenyl)-6-(pyrazolo[1,5-a]pyrimidin-3-yl)-1H-pyrazolo[4,3-c]pyridin-3-yl)-N-methylmethanamine] |

The remaining lines, values behind:

| SMILES | IC50 (JAK 2) [nM] | IC50 (JAK 3) [nM] | IC50 (TYK2) [nM] | IC50 (JAK 1) [nM] |
| --- | --- | --- | --- | --- |
| CN(C)Cc1nn(-c2cc(Cl)ccc2OC(F)F)c2cc(-c3cnn4cccnc34)ncc12 [Example 30, 1-(1-(5-chloro-2-(difluoromethoxy)phenyl)-6-(pyrazolo[1,5-a]pyrimidin-3-yl)-1H-pyrazolo[4,3-c]pyridin-3-yl)-N,N-dimethylmethanamine] | 5.01 to 50.1 | 5.01 to 50.1 | > 50.1 | 5.01 to 50.1 |
| Cc1nn(-c2cc(Cl)ccc2O)c2cc(-c3cnn4cccnc34)ncc12 [Example 12, 4-chloro-2-(3-methyl-6-(pyrazolo[1,5-a]pyrimidin-3-yl)-1H-pyrazolo[4,3-c]pyridin-1-yl)phenol] | ≤ 5.01 | 5.01 to 50.1 | 5.01 to 50.1 | 5.01 to 50.1 |
| COc1ccc(OC)c(-n2nc(C)c3cnc(-c4cnn5cccnc45)cc32)c1 [Example 8, 1-(2,5-dimethoxyphenyl)-3-methyl-6-(pyrazolo[1,5-a]pyrimidin-3-yl)-1H-pyrazolo[4,3-c]pyridine] | ≤ 5.01 | 5.01 to 50.1 | > 50.1 | 5.01 to 50.1 |
| CSc1ccc(OC(F)F)c(-n2nc(C(=O)NCCCN(C)C)c3cnc(-c4cnn5cccnc45)cc32)c1 [Example 37, 1-(2-(difluoromethoxy)-5-(methylthio)phenyl)-N-(3-(dimethylamino)propyl)-6-(pyrazolo[1,5-a]pyrimidin-3-yl)-1H-pyrazolo[4,3-c]pyridine-3-carboxamide] | ≤ 5.01 | ≤ 5.01 | 5.01 to 50.1 | ≤ 5.01 |
| COc1ccc(F)cc1-n1nc(C)c2cnc(-c3cnn4cccnc34)cc21 [Example 1, 1-(5-fluoro-2-methoxyphenyl)-3-methyl-6-(pyrazolo[1,5-a]pyrimidin-3-yl)-1H-pyrazolo[4,3-c]pyridine] | ≤ 5.01 | 5.01 to 50.1 | 5.01 to 50.1 | 5.01 to 50.1 |
